How the values were obtained:
M. incognita = assay: Residuality test in soil against root knot nematode; assay type: in vivo, Meloidogyne incognita; conditions: 1250 g ai/ha on bare soil, aged four weeks, then seedlings and 4,000 J2s, evaluated after 14 days
Description: A residuality test was conducted to compare the residual control or persistence of S1, R1, C1, C2, C3, C4, and C5 in soil. Each compound was applied to a bare sandy loam soil (without plant or nematode) in a 3-inch pot at 1250 g ai/ha. The treated soils were kept in a Greenhouse (temperature 27° C.) under regular irrigation for four weeks. At the end of the four weeks, six-day old cucumber (Cucumis sativus) seedlings were transplanted into the treated soil and inoculated with 4,000 second stage juveniles of M. incognita. Each treatment was replicated four times. The inoculated plants were kept in a Greenhouse for 14 days (temperature 27° C.) before evaluating the amount of root damage (galls) called Galling Index (GI) based on a scale of 0-10; where 0=no galls (100% nematode control), and 10=maximum galls (no nematode control). The GI were converted to % control using the formula ((10−GI)×10); where GI=Gall Index. The data were analyzed by Analysis of Variance using JMP (John's Macintosh Project) statistical software and the means were separated using Tukey's HSD (α=0.05).

Meloidogyne incognita [1] = assay: Root knot nematode comparative bioactivity test at 600 g ai/ha, drench on cucumber seedlings; assay type: in vivo; conditions: 14 days after inoculation, (10−GI)×10
Description: We carried out an experiment to evaluate comparative bioactivity of S1, C1, C2, C3, C4, and C5 against the root knot nematode, Meloidogyne incognita. Each compound was tested at 600 grams of active ingredient per hectare (g ai/ha) and was replicated three times. Cucumber seeds (Cucumis sativus) were planted in a sandy loam soil in 3-inch pots. After six (6) days of planting, the seedlings were treated with the test compounds dissolved in 5% acetone in water by drench application. The plants were inoculated with 4,000 second stage juveniles (J2s) of M. incognita. The inoculated plants were kept in a Greenhouse for 14 days (temperature 27° C.) before evaluating the amount of root damage (galls) called Galling Index (GI) based on a scale of 0-10; where 0=no galls (100% nematode control), and 10=maximum galls (no nematode control). The GI was converted to % nematode control using the formula ((10−GI)×10); where GI=Gall Index. The data were analyzed by Analysis of Variance using JMP (John's Macintosh Project) statistical software and the means were separated using Tukey's HSD (α=0.05).

Meloidogyne incognita [2] = assay: Root Knot Nematode (RKN) test on cucumber seedlings in pots, Galling Index converted to % control, EC by probit analysis; assay type: in vivo; conditions: RKN EC50
Description: (§1) We conducted an experiment to evaluate comparative bioactivity of S1, R1, and B1 against the root knot nematode (RKN), Meloidogyne incognita. Each of S1, R1, and B1 were tested at six rates: 125, 62.5, 31.25, 15.6, 7.8, 3.9, and 2 ppm. Cucumber seeds (Cucumis sativus) were planted in a sandy loam soil in 3-inch pots. After 6 days of germination, the seedlings were treated with the test compounds dissolved in 5% acetone in water. The treated plants were inoculated with 4,000 second stage juveniles (J2s) of M. incognita. Each experimental unit was replicated three times. The inoculated plants were kept in a Greenhouse for 14 days (about 27° C.) before evaluating the amount of root damage (galls) called Galling Index (GI) based on a scale of 0-10; where 0=no galls (100% control), and 10=maximum galls (no control). The GI was converted to % control using the formula (10−GI)×10; where GI=Gall Index. Effective concentration (EC) values based on the % control of the nematode by S1, R1 and B1 were calculated by probit analysis.

Pratylechus penetrans = assay: Root Lesion Nematode (RLN) in-vitro mortality test; assay type: in vivo; conditions: RLN LC50
Description: We carried out an in-vitro experiment to compare activity of S1, R1, and B1 with each other against the root lesion nematode (RLN), Pratylechus penetrans. Each of S1, R1, and B1 were tested at six rates: 62.5, 15.6, 4, 1, 0.25, and 0 ppm (UTC) with three replications of each treatment. Equal volume of nematode suspension was added to an equal volume of each of S1, R1, and B1 dissolved in 0.5% DMSO (dimethyl sulfoxide) in water in 25 mL vials. The treated nematode suspension was incubated at room temperature (about 25° C.) on a shaker (95 RPM). Aliquots of 1 mL of the nematode suspension was evaluated under a microscope for mortality after 48 hours. RLN were counted, and the number of dead and active nematodes was used to calculate % mortality from which lethal concentration (LC) values were generated.

[3] = tested on: Heterodera glycines second stage juveniles (J2); assay: Soybean Cyst Nematode (SCN) in-vitro mortality test; assay type: in vivo; conditions: SCN LC50
Description: We carried out an in-vitro experiment to compare activity of S1, R1, and B1 with each other against the soybean cyst nematode (SCN): Heterodera glycines second stage juveniles (J2). Each of S1, R1, and B1 were tested at six rates: 62.5, 15.6, 4, 1, 0.25, and 0 ppm (untreated control, UTC with three replications of each treatment. Equal volume of nematode suspension was added to an equal volume of compound dissolved in 0.5% DMSO (dimethyl sulfoxide) in water. The nematode plus compound was incubated at room temperature (about 25° C.) on a shaker at 95 revolutions per minutes (RPM). Aliquots of 0.5 milliliters (mL) of the nematode suspension were evaluated under a microscope for mortality after 48 hours of incubation. SCN J2s were counted, and the number of dead and active nematodes was used to calculate % SCN mortality which was used to generate lethal concentration (LC) values by probit analysis.

[4] = tested on: root knot nematode, soybean cyst nematode, root lesion nematode; assay: Average of Delta % over the RKN, SCN and RLN tests of Example One; assay type: in vivo
Description: as §1, with “The GI was converted to % control using the formula (10−GI)×10; where GI=Gall Index.” left out, “analysis. […]” for “analysis.”
We carried out an in-vitro experiment to compare activity of S1, R1, and B1 with each other against the root lesion nematode (RLN), Pratylechus penetrans. […] Aliquots of 1 mL of the nematode suspension was evaluated under a microscope for mortality after 48 hours. RLN were counted, and the number of dead and active nematodes was used to calculate % mortality from which lethal concentration (LC) values were generated.

| Structure (SMILES) | Mean Percent Control (M. incognita) | Mean Percent Control (Meloidogyne incognita [1]) | Delta % vs B1 (Meloidogyne incognita [2]) | Delta % vs B1 (Pratylechus penetrans) | Delta % vs B1 [3] | Delta % on average, S1 versus B1 [4] |
| --- | --- | --- | --- | --- | --- | --- |
| C[C@H](NC(=O)c1ccoc1Cl)C(C)(C)C [Molecule C1] | 27.5% | 54% |  |  |  |  |
| CCC(CC)[C@H](C)NC(=O)c1ccoc1Cl [Molecule S1, (S)-2-chloro-N-(3-ethylpentan-2-yl)furan-3-carboxamide] |  |  | 240% | 259% | 1194% | 564% |
